In PubChem BioAssay (NCI):
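Cells were grown in 96-well plates and exposed to each compound for 48 hours at five concentrations; endpoints were interpolated linearly between bracketing concentrations, or set to the highest concentration if not reached. TGI: concentration producing complete growth inhibition.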

Assays:
Test in all cases: growth of human tumour cells (NCI), 48 h
786-0 renal = tested on: 786-0 renal
A549 NSCLC = tested on: A549 NSCLC
ACHN renal = tested on: ACHN renal
CAKI-1 renal = tested on: CAKI-1 renal
CCRF-CEM leukemia = tested on: CCRF-CEM leukemia
COLO 205 colon = tested on: COLO 205 colon
DMS 114 small cell lung = tested on: DMS 114 small cell lung
DMS 273 small cell lung = tested on: DMS 273 small cell lung
EKVX NSCLC = tested on: EKVX NSCLC
HCC-2998 colon = tested on: HCC-2998 colon
HCT-116 colon = tested on: HCT-116 colon
HCT-15 colon = tested on: HCT-15 colon
HL-60(TB) leukemia = tested on: HL-60(TB) leukemia
HOP-18 NSCLC = tested on: HOP-18 NSCLC
HOP-62 NSCLC = tested on: HOP-62 NSCLC
HOP-92 NSCLC = tested on: HOP-92 NSCLC
HT29 colon = tested on: HT29 colon
K-562 leukemia = tested on: K-562 leukemia
KM12 colon = tested on: KM12 colon
KM20L2 colon = tested on: KM20L2 colon
LXFL 529 NSCLC = tested on: LXFL 529 NSCLC
M14 melanoma = tested on: M14 melanoma
M19-MEL melanoma = tested on: M19-MEL melanoma
MALME-3M melanoma = tested on: MALME-3M melanoma
MOLT-4 leukemia = tested on: MOLT-4 leukemia
NCI-H226 lung = tested on: NCI-H226 lung
NCI-H23 lung = tested on: NCI-H23 lung
NCI-H460 lung = tested on: NCI-H460 lung
NCI-H522 lung = tested on: NCI-H522 lung
OVCAR-3 ovarian = tested on: OVCAR-3 ovarian
OVCAR-4 ovarian = tested on: OVCAR-4 ovarian
OVCAR-8 ovarian = tested on: OVCAR-8 ovarian
RPMI-8226 leukemia = tested on: RPMI-8226 leukemia
SF-268 CNS = tested on: SF-268 CNS
SF-295 CNS = tested on: SF-295 CNS
SF-539 CNS = tested on: SF-539 CNS
SK-MEL-2 melanoma = tested on: SK-MEL-2 melanoma
SK-MEL-28 melanoma = tested on: SK-MEL-28 melanoma
SK-MEL-5 melanoma = tested on: SK-MEL-5 melanoma
SN12C renal = tested on: SN12C renal
SNB-19 CNS = tested on: SNB-19 CNS
SNB-75 CNS = tested on: SNB-75 CNS
SR leukemia = tested on: SR leukemia
SW-620 colon = tested on: SW-620 colon
TK-10 renal = tested on: TK-10 renal
U251 CNS = tested on: U251 CNS
UACC-257 melanoma = tested on: UACC-257 melanoma
UACC-62 melanoma = tested on: UACC-62 melanoma
UO-31 renal = tested on: UO-31 renal
XF 498 CNS = tested on: XF 498 CNS

Question: For `CCCCCCC1CCC2CCCC(C)N12` (stereo not given), which TGI (786-0 renal) is on record?
Answer: > 100 µM

Question: And the TGI (A549 NSCLC)?
Answer: > 100 µM

Question: And the TGI (ACHN renal)?
Answer: > 100 µM

Question: And the TGI (CAKI-1 renal)?
Answer: > 100 µM

Question: And the TGI (CCRF-CEM leukemia)?
Answer: 62 µM

Question: And the TGI (COLO 205 colon)?
Answer: 34.1 µM

Question: And the TGI (DMS 114 small cell lung)?
Answer: > 100 µM

Question: What about the TGI (DMS 273 small cell lung) of the same molecule?
Answer: > 100 µM

Question: What about the TGI (EKVX NSCLC) of the same molecule?
Answer: > 100 µM

Question: And the TGI (HCC-2998 colon)?
Answer: 45.6 µM

Question: And the TGI (HCT-116 colon)?
Answer: > 100 µM

Question: And the TGI (HCT-15 colon)?
Answer: 89.6 µM

Question: And the TGI (HL-60(TB) leukemia)?
Answer: 38.2 µM

Question: What about the TGI (HOP-18 NSCLC) of the same molecule?
Answer: > 100 µM

Question: What about the TGI (HOP-62 NSCLC) of the same molecule?
Answer: > 100 µM

Question: What about the TGI (HOP-92 NSCLC) of the same molecule?
Answer: > 100 µM

Question: What about the TGI (HT29 colon) of the same molecule?
Answer: > 10 µM

Question: And the TGI (K-562 leukemia)?
Answer: 35.3 µM

Question: And the TGI (KM12 colon)?
Answer: > 100 µM

Question: And the TGI (KM20L2 colon)?
Answer: > 100 µM

Question: And the TGI (LXFL 529 NSCLC)?
Answer: > 10 µM

Question: And the TGI (M14 melanoma)?
Answer: 76.9 µM

Question: What about the TGI (M19-MEL melanoma) of the same molecule?
Answer: > 100 µM

Question: And the TGI (MALME-3M melanoma)?
Answer: > 10 µM

Question: What about the TGI (MOLT-4 leukemia) of the same molecule?
Answer: 47.1 µM

Question: What about the TGI (NCI-H226 lung) of the same molecule?
Answer: > 100 µM

Question: What about the TGI (NCI-H23 lung) of the same molecule?
Answer: 97.4 µM

Question: And the TGI (NCI-H460 lung)?
Answer: 59.8 µM

Question: And the TGI (NCI-H522 lung)?
Answer: > 100 µM

Question: What about the TGI (OVCAR-3 ovarian) of the same molecule?
Answer: > 100 µM

Question: And the TGI (OVCAR-4 ovarian)?
Answer: > 100 µM

Question: What about the TGI (OVCAR-8 ovarian) of the same molecule?
Answer: > 100 µM

Question: What about the TGI (RPMI-8226 leukemia) of the same molecule?
Answer: 53.9 µM

Question: And the TGI (SF-268 CNS)?
Answer: > 100 µM

Question: What about the TGI (SF-295 CNS) of the same molecule?
Answer: > 100 µM

Question: And the TGI (SF-539 CNS)?
Answer: > 100 µM

Question: And the TGI (SK-MEL-2 melanoma)?
Answer: 69.2 µM

Question: And the TGI (SK-MEL-28 melanoma)?
Answer: > 100 µM

Question: What about the TGI (SK-MEL-5 melanoma) of the same molecule?
Answer: > 100 µM

Question: What about the TGI (SN12C renal) of the same molecule?
Answer: > 100 µM

Question: And the TGI (SNB-19 CNS)?
Answer: > 100 µM

Question: And the TGI (SNB-75 CNS)?
Answer: > 100 µM

Question: And the TGI (SR leukemia)?
Answer: 58.4 µM

Question: What about the TGI (SW-620 colon) of the same molecule?
Answer: 31.1 µM

Question: What about the TGI (TK-10 renal) of the same molecule?
Answer: > 100 µM

Question: And the TGI (U251 CNS)?
Answer: > 100 µM

Question: What about the TGI (UACC-257 melanoma) of the same molecule?
Answer: > 100 µM

Question: And the TGI (UACC-62 melanoma)?
Answer: > 100 µM

Question: And the TGI (UO-31 renal)?
Answer: > 100 µM

Question: What about the TGI (XF 498 CNS) of the same molecule?
Answer: 36.1 µM
